# Results from PubChem BioAssay (NCI).
#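 Assay format: 96-well plates, 48-hour exposure. The concentration for full growth arrest is given as TGI.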
# Key:
# Test in all cases: NCI-60 cell line screen, 48 h
# 786-0 renal = test system: 786-0 renal
# A498 renal = test system: A498 renal
# A549 NSCLC = test system: A549 NSCLC
# ACHN renal = test system: ACHN renal
# BT-549 breast = test system: BT-549 breast
# CAKI-1 renal = test system: CAKI-1 renal
# CCRF-CEM leukemia = test system: CCRF-CEM leukemia
# COLO 205 colon = test system: COLO 205 colon
# DU-145 prostate = test system: DU-145 prostate
# EKVX NSCLC = test system: EKVX NSCLC
# HCC-2998 colon = test system: HCC-2998 colon
# HCT-116 colon = test system: HCT-116 colon
# HCT-15 colon = test system: HCT-15 colon
# HL-60(TB) leukemia = test system: HL-60(TB) leukemia
# HOP-62 NSCLC = test system: HOP-62 NSCLC
# HOP-92 NSCLC = test system: HOP-92 NSCLC
# HS 578T breast = test system: HS 578T breast
# HT29 colon = test system: HT29 colon
# IGROV1 ovarian = test system: IGROV1 ovarian
# K-562 leukemia = test system: K-562 leukemia
# KM12 colon = test system: KM12 colon
# LOX IMVI melanoma = test system: LOX IMVI melanoma
# M14 melanoma = test system: M14 melanoma
# MALME-3M melanoma = test system: MALME-3M melanoma
# MCF7 breast = test system: MCF7 breast
# MDA-MB-231 breast = test system: MDA-MB-231 breast
# MDA-MB-435 = test system: MDA-MB-435
# MDA-N = test system: MDA-N
# MOLT-4 leukemia = test system: MOLT-4 leukemia
# NCI-H226 lung = test system: NCI-H226 lung
# NCI-H23 lung = test system: NCI-H23 lung
# NCI-H460 lung = test system: NCI-H460 lung
# NCI-H522 lung = test system: NCI-H522 lung
# NCI/ADR-RES ovarian = test system: NCI/ADR-RES ovarian
# OVCAR-3 ovarian = test system: OVCAR-3 ovarian
# OVCAR-4 ovarian = test system: OVCAR-4 ovarian
# OVCAR-8 ovarian = test system: OVCAR-8 ovarian
# PC-3 prostate = test system: PC-3 prostate
# RPMI-8226 leukemia = test system: RPMI-8226 leukemia
# SF-268 CNS = test system: SF-268 CNS
# SF-295 CNS = test system: SF-295 CNS
# SF-539 CNS = test system: SF-539 CNS
# SK-MEL-2 melanoma = test system: SK-MEL-2 melanoma
# SK-MEL-28 melanoma = test system: SK-MEL-28 melanoma
# SK-MEL-5 melanoma = test system: SK-MEL-5 melanoma
# SN12C renal = test system: SN12C renal
# SNB-19 CNS = test system: SNB-19 CNS
# SR leukemia = test system: SR leukemia
# SW-620 colon = test system: SW-620 colon
# TK-10 renal = test system: TK-10 renal
# U251 CNS = test system: U251 CNS
# UACC-257 melanoma = test system: UACC-257 melanoma
# UO-31 renal = test system: UO-31 renal
# OVCAR-5 ovarian = test system: OVCAR-5 ovarian
# RXF 393 renal = test system: RXF 393 renal
# SK-OV-3 ovarian = test system: SK-OV-3 ovarian
# SNB-75 CNS = test system: SNB-75 CNS
# UACC-62 melanoma = test system: UACC-62 melanoma
smiles,measurement,setting,value
Cc1c(Cl)ccc2c(=O)c3cccc(CC(=O)O)c3oc12,TGI,786-0 renal,> 100 µM
same,TGI,A498 renal,> 100 µM
same,TGI,A549 NSCLC,> 100 µM
same,TGI,ACHN renal,> 100 µM
same,TGI,BT-549 breast,> 100 µM
same,TGI,CAKI-1 renal,> 100 µM
same,TGI,CCRF-CEM leukemia,> 100 µM
same,TGI,COLO 205 colon,> 100 µM
same,TGI,DU-145 prostate,> 100 µM
same,TGI,EKVX NSCLC,> 100 µM
same,TGI,HCC-2998 colon,> 100 µM
same,TGI,HCT-116 colon,> 100 µM
same,TGI,HCT-15 colon,> 100 µM
same,TGI,HL-60(TB) leukemia,> 100 µM
same,TGI,HOP-62 NSCLC,> 100 µM
same,TGI,HOP-92 NSCLC,> 100 µM
same,TGI,HS 578T breast,> 100 µM
same,TGI,HT29 colon,> 100 µM
same,TGI,IGROV1 ovarian,> 100 µM
same,TGI,K-562 leukemia,> 100 µM
same,TGI,KM12 colon,> 100 µM
same,TGI,LOX IMVI melanoma,> 100 µM
same,TGI,M14 melanoma,> 100 µM
same,TGI,MALME-3M melanoma,> 100 µM
same,TGI,MCF7 breast,> 100 µM
same,TGI,MDA-MB-231 breast,> 100 µM
same,TGI,MDA-MB-435,> 100 µM
same,TGI,MDA-N,> 100 µM
same,TGI,MOLT-4 leukemia,> 100 µM
same,TGI,NCI-H226 lung,> 100 µM
same,TGI,NCI-H23 lung,> 100 µM
same,TGI,NCI-H460 lung,> 100 µM
same,TGI,NCI-H522 lung,> 100 µM
same,TGI,NCI/ADR-RES ovarian,> 100 µM
same,TGI,OVCAR-3 ovarian,> 100 µM
same,TGI,OVCAR-4 ovarian,> 100 µM
same,TGI,OVCAR-8 ovarian,> 100 µM
same,TGI,PC-3 prostate,> 100 µM
same,TGI,RPMI-8226 leukemia,> 100 µM
same,TGI,SF-268 CNS,> 100 µM
same,TGI,SF-295 CNS,> 100 µM
same,TGI,SF-539 CNS,> 100 µM
same,TGI,SK-MEL-2 melanoma,> 100 µM
same,TGI,SK-MEL-28 melanoma,> 100 µM
same,TGI,SK-MEL-5 melanoma,> 100 µM
same,TGI,SN12C renal,> 100 µM
same,TGI,SNB-19 CNS,> 100 µM
same,TGI,SR leukemia,> 100 µM
same,TGI,SW-620 colon,> 100 µM
same,TGI,TK-10 renal,> 100 µM
same,TGI,U251 CNS,> 100 µM
same,TGI,UACC-257 melanoma,> 100 µM
same,TGI,UO-31 renal,> 100 µM
CCn1cc(C(c2ccc(Cl)cc2)n2ccnc2)c2cc(Br)ccc21 (centres undefined),TGI,A498 renal,27 µM
same,TGI,A549 NSCLC,24 µM
same,TGI,ACHN renal,25.9 µM
same,TGI,BT-549 breast,31.9 µM
same,TGI,CAKI-1 renal,27.3 µM
same,TGI,COLO 205 colon,35.1 µM
same,TGI,DU-145 prostate,30.3 µM
same,TGI,EKVX NSCLC,> 100 µM
same,TGI,HCC-2998 colon,29 µM
same,TGI,HCT-116 colon,33.8 µM
same,TGI,HCT-15 colon,30.6 µM
same,TGI,HOP-62 NSCLC,28.6 µM
same,TGI,HOP-92 NSCLC,19.4 µM
same,TGI,HS 578T breast,47.2 µM
same,TGI,HT29 colon,22.3 µM
same,TGI,IGROV1 ovarian,24.8 µM
same,TGI,K-562 leukemia,33.5 µM
same,TGI,KM12 colon,24.3 µM
same,TGI,LOX IMVI melanoma,28.2 µM
same,TGI,M14 melanoma,26.7 µM
same,TGI,MALME-3M melanoma,32.7 µM
same,TGI,MCF7 breast,29.8 µM
same,TGI,MDA-MB-231 breast,35.8 µM
same,TGI,MDA-MB-435,27 µM
same,TGI,MDA-N,66.2 µM
same,TGI,MOLT-4 leukemia,> 100 µM
same,TGI,NCI-H226 lung,76.5 µM
same,TGI,NCI-H23 lung,31.1 µM
same,TGI,NCI/ADR-RES ovarian,42.7 µM
same,TGI,OVCAR-3 ovarian,22.2 µM
same,TGI,OVCAR-4 ovarian,22.8 µM
same,TGI,OVCAR-5 ovarian,25.5 µM
same,TGI,OVCAR-8 ovarian,31.6 µM
same,TGI,PC-3 prostate,22.8 µM
same,TGI,RPMI-8226 leukemia,75 µM
same,TGI,RXF 393 renal,29.9 µM
same,TGI,SF-268 CNS,27.4 µM
same,TGI,SF-295 CNS,23.8 µM
same,TGI,SF-539 CNS,41.3 µM
same,TGI,SK-MEL-2 melanoma,38.8 µM
same,TGI,SK-MEL-5 melanoma,31.2 µM
same,TGI,SK-OV-3 ovarian,33.3 µM
same,TGI,SN12C renal,> 100 µM
same,TGI,SNB-19 CNS,28.3 µM
same,TGI,SNB-75 CNS,28.5 µM
same,TGI,SR leukemia,36.8 µM
same,TGI,TK-10 renal,33.7 µM
same,TGI,U251 CNS,30.5 µM
same,TGI,UACC-257 melanoma,31.4 µM
same,TGI,UACC-62 melanoma,25.2 µM
same,TGI,UO-31 renal,20.1 µM
